Eight compounds from US9115137B2, “2,3,4,5-tetrahydro-1H-pyrido[4,3-B]indole compounds and methods of use thereof” (priority 2008, dated 2015) can be followed below.

The subject of assay [1] is rat central imidazoline I2 receptor. The assay can be described thus: Central imidazoline I2 radioligand binding ([3H]Idazoxan). As to conditions: compound at 1 μM; Wistar Rat cerebral cortex.
In assay [2] the target is T1, human recombinant serotonin (5-Hydroxytryptamine) 5-HT2A receptor (Homo sapiens, UniProt P28223).
T1 construct: expressed in transfected cells; host or cells: CHO-K1 cells
T1 sequence (P28223 whole entry): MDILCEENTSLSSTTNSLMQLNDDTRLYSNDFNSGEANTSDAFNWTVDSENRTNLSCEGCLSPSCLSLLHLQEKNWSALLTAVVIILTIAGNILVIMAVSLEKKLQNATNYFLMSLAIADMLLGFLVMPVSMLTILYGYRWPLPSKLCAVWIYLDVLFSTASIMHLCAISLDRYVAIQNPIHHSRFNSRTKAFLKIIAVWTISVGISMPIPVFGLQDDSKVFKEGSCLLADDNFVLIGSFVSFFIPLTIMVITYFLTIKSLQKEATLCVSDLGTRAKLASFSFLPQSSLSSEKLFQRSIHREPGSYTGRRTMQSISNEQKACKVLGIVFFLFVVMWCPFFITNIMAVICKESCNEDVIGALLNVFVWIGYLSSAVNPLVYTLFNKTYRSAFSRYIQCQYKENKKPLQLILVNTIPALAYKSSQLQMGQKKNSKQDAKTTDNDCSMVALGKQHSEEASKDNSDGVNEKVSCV
The assay can be described thus: Serotonin 5-HT2A radioligand binding ([3H]Ketanserin). As to conditions: compound at 1 μM; CHO-K1 cells; read-out: Serotonin (1 μM) 5-HT2A, percent inhibition of specific binding. The method, then: To evaluate in radioligand binding assays the activity of compounds of the invention, human recombinant serotonin (5-Hydroxytryptamine) 5-HT2A receptor expressed in Chinese hamster ovary (CHO-K1) cells (Bonhaus, D. W. et al. Br. J. Pharmacol. 115:622, 1995; Saucier, C. and Albert, P. R., J. Neurochem. 68:1998, 1997) in a 50 mM Tris-HCl buffer, pH 7.4, was used. Compounds of the invention were incubated with 0.5 nM [^3H]Ketanserin for 60 minutes at 25° C. Non-specific binding was estimated in the presence of 1 μM Mianserin. Receptor proteins were filtered and washed, the filters were then counted to determine [^3H] Ketanserin specifically bound. Compounds were screened at 1 μM or lower, using 1% DMSO as vehicle. Biochemical assay results are presented as the percent inhibition of specific binding in Table 7.

Assay [3] deals with T2, human recombinant serotonin (5-Hydroxytryptamine) 5-HT2B receptor (Homo sapiens, UniProt P41595).
T2 construct: expressed in transfected cells; host or cells: CHO-K1 cells
T2 sequence (P41595 whole entry): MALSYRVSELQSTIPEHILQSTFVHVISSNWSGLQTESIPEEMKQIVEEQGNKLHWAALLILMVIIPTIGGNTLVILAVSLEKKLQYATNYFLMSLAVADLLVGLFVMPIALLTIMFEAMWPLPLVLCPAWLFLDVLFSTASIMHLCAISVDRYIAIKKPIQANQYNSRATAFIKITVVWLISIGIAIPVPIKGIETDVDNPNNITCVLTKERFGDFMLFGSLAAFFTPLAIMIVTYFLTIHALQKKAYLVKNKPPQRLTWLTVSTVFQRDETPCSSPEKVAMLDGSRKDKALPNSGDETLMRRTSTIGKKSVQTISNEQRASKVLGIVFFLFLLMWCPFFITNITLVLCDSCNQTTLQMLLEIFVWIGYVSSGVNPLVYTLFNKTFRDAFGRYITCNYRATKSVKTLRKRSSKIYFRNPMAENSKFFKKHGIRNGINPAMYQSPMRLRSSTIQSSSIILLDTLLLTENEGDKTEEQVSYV
The assay can be described thus: Serotonin 5-HT2B radioligand binding ([3H]LSD). To be noted: compound at 1 μM; CHO-K1 cells; read-out: Serotonin (1 μM) 5-HT2B, percent inhibition of specific binding. The method, then: To evaluate in radioligand binding assays the activity of compounds of the invention, human recombinant serotonin (5-Hydroxytryptamine) 5-HT2B receptor expressed in Chinese hamster ovary (CHO-K1) cells (Bonhaus, D. W. et al., Br. J. Pharmacol. 115:622, 1995) in a modified Tris-HCl buffer (50 mM Tris-HCl, pH 7.4, 4 mM CaCl2, 0.1% Ascorbic Acid) was used. Compounds of invention were incubated with 1.2 nM [^3H]Lysergic acid diethylamide (LSD) for 60 minutes at 37° C. Non-specific binding was estimated in the presence of 10 μM Serotonin (5-HT). Receptor proteins were filtered and washed, the filters were then counted to determine [^3H]LSD specifically bound. Compounds were screened at 1 μM or lower, using 1% DMSO as vehicle. Compounds of the invention were tested in this biochemical assay and percent inhibition of specific binding was determined. Biochemical assay results are presented as the percent inhibition of specific binding in Table 7.

For assay [4], the target named is T3, human recombinant serotonin (5-Hydroxytryptamine) 5-HT5A receptor (Homo sapiens, UniProt P47898).
T3 construct: expressed in transfected cells; host or cells: CHO-K1 cells
T3 sequence (P47898 whole entry): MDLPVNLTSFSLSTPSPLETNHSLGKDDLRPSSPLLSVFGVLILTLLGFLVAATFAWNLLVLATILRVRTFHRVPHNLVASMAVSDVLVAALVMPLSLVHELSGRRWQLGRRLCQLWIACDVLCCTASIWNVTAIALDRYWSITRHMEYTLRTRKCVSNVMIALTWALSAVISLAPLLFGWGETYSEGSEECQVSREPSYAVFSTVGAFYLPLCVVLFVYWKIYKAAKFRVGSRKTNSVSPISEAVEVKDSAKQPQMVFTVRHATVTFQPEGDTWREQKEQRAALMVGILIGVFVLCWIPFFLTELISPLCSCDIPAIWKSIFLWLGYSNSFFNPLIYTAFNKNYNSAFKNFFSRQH
The assay is described as follows: Serotonin 5-HT5A radioligand binding ([3H]LSD). To be noted: compound at 1 μM; CHO-K1 cells; read-out: Serotonin (1 μM) 5-HT5A, percent inhibition of specific binding. The method, then: To evaluate in radioligand binding assays the activity of compounds of the invention, human recombinant serotonin (5-Hydroxytryptamine) 5-HT5A receptor expressed in Chinese hamster ovary (CHO-K1) cells (Rees, S. et al., FEBS Lett. 355:242, 1994) in a modified Tris-HCl buffer (50 mM Tris-HCl, pH 7.4, 10 mM MgCl2, 0.5 mM EDTA) was used. Compounds of the invention were incubated with 1.7 nM [^3H]Lysergic acid diethylamide (LSD) for 60 minutes at 37° C. Non-specific binding was estimated in the presence of 100 μM Serotonin (5-HT). Receptor proteins were filtered and washed, the filters were then counted to determine [^3H]LSD specifically bound. Compounds were screened at 1 μM or lower, using 1% DMSO as vehicle. Compounds of the invention were tested in this biochemical assay and percent inhibition of specific binding was determined. Biochemical assay results are presented as the percent inhibition of specific binding in Table 7.

For assay [5], the target named is T4, human recombinant serotonin (5-Hydroxytryptamine) 5-HT7 receptor (Homo sapiens, UniProt P34969).
T4 construct: expressed in transfected cells; host or cells: CHO cells
T4 sequence (P34969 whole entry): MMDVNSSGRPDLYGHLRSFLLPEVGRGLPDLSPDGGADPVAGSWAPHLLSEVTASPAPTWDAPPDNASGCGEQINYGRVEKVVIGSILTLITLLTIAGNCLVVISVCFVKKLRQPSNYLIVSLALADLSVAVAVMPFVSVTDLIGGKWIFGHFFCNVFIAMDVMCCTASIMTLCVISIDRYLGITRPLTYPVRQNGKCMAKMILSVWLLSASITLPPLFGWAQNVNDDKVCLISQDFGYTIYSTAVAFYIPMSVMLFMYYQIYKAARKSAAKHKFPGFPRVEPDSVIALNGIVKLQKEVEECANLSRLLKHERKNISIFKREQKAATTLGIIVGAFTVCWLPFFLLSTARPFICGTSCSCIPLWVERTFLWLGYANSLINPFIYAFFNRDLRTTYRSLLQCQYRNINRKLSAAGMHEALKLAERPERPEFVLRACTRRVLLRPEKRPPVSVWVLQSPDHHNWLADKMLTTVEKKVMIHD
The assay is described as follows: Serotonin 5-HT7 radioligand binding ([3H]LSD). To be noted: compound at 1 μM; CHO cells; read-out: Serotonin (1 μM) 5-HT7, percent inhibition of specific binding. The method, then:
To evaluate in radioligand binding assays the activity of compounds of the invention, human recombinant serotonin (5-Hydroxytryptamine) 5-HT7 receptor expressed in Chinese hamster ovary (CHO) cells (Roth, B. L. et al., J. Pharmacol. Exp. Ther. 268:1403, 1994; Shen, Y. et al., J. Biol. Chem. 268:18200, 1993) in a modified Tris-HCl buffer (50 mM Tris-HCl, pH 7.4, 10 mM MgCl2, 0.5 mM EDTA) was used. Compounds of invention were incubated with 5.5 nM [^3H] Lysergic acid diethylamide (LSD) for 2 hours at 25° C. Non-specific binding was estimated in the presence of 10 μM Serotonin (5-HT). Receptor proteins were filtered and washed, the filters were then counted to determine [^3H]LSD specifically bound. Compounds were screened at 1 μM or lower, using 1% DMSO as vehicle. Biochemical assay results are presented as the percent inhibition of specific binding in Table 7.

The target in assay [6] is T5, human recombinant dopamine D2L receptor (Homo sapiens, UniProt P14416).
T5 construct: expressed in transfected cells; host or cells: CHO cells
T5 sequence (P14416 whole entry): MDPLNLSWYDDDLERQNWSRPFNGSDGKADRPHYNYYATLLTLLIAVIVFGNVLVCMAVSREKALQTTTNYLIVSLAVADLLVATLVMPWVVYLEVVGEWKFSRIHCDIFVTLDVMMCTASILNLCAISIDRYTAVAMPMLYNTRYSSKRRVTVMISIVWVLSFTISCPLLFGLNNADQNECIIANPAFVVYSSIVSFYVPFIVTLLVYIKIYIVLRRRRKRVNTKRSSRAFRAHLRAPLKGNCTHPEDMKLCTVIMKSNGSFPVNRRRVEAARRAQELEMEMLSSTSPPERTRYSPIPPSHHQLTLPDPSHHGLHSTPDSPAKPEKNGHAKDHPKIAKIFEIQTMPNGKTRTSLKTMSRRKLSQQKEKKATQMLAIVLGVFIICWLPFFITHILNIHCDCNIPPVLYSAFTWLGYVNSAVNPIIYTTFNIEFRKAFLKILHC
The assay can be described thus: Dopamine D2L radioligand binding ([3H]Spiperone). As to conditions: compound at 1 μM; CHO cells; read-out: Dopamine (1 μM) D2L, percent inhibition of specific binding. In short, it runs like this:
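CHO cells expressing the receptor, in 50 mM Tris-HCl pH 7.4 with 1.4 mM ascorbic acid, 0.001% BSA, 150 mM NaCl; 0.16 nM [3H]spiperone, 120 min at 25° C, nonspecific binding with 10 μM haloperidol.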

SMILES strings stand for the structures.

In the case of `CCOC(=O)CCn1c2c(c3cc(C)ccc31)CN(C)CC2` [CD1, ethyl 3-(1,2,3,4-tetrahydro-2,8-dimethylpyrido[4,3-b]indol-5-yl)propanoate], the “Imidazoline I2 Central (1 μM), percent inhibition of specific binding” value in assay [1] stood at 55%. The inhibition – broadly, the relative decrease from the control value, in per cent – at 1 µM came out at 89% in assay [2], 54% in assay [3], 39% in assay [4] and 85% in assay [5].
The matching figures for `Cc1ccc2c(c1)c1c(n2CC#N)CCN(C)C1` [CD61, 2-(1,2,3,4-tetrahydro-2,8-dimethylpyrido[4,3-b]indol-5-yl)acetonitrile]: 60%, 77%, 43%, 52% and 94%.
Turning to `Cc1ccc2c(c1)c1c(n2CCNC(=O)C2CCCNC2)CCN(C)C1` (centres unmarked) [Compound 9, N-(2-(1,2,3,4-tetrahydro-2,8-dimethylpyrido[4,3-b]indol-5-yl)ethyl)piperidine-3-carboxamide], the “Imidazoline I2 Central (1 μM), percent inhibition of specific binding” value in assay [1] turned out to be 9%. Besides, the inhibition at 1 µM was 2% in assay [6]; 15% in assay [2]; -5% in assay [3]; -6% in assay [4]; -8% in assay [5].
Consider `Cc1ccc2c(c1)c1c(n2CCNC(=O)OCC(Cl)(Cl)Cl)CCN(C)C1` [Compound 8, 2,2,2-trichloroethyl 2-(1,2,3,4-tetrahydro-2,8-dimethylpyrido[4,3-b]indol-5-yl)ethylcarbamate], for which the “Imidazoline I2 Central (1 μM), percent inhibition of specific binding” value in assay [1] turned out to be 57%. The inhibition at 1 µM amounted to 99% in assay [2], 64% in assay [3], 60% in assay [4] and 75% in assay [5].
Take `CCNC(=O)CCn1c2c(c3cc(C)ccc31)CN(C)CC2` [Compound 2, N-ethyl-3-(1,2,3,4-tetrahydro-2,8-dimethylpyrido[4,3-b]indol-5-yl)propanamide]: in assay [1], the “Imidazoline I2 Central (1 μM), percent inhibition of specific binding” value was determined as 8%. The inhibition at 1 µM in assay [2] worked out at 22%; in assay [3], 20%; in assay [4] it was 14%; in assay [5] it was 47%.
The matching figures for `CCNC(=O)CCCn1c2c(c3cc(C)ccc31)CN(C)CC2` [Compound 6, N-ethyl-4-(1,2,3,4-tetrahydro-2,8-dimethylpyrido[4,3-b]indol-5-yl)butanamide]: 52%, 30%, 21%, 25% and 43%.
The matching figures for `CCOC(=O)CCCn1c2c(c3cc(C)ccc31)CN(C)CC2` [Compound 5, ethyl 4-(1,2,3,4-tetrahydro-2,8-dimethylpyrido[4,3-b]indol-5-yl)butanoate]: 53%, 91%, 77%, 62% and 95%.
Regarding `Cc1ccc2c(c1)c1c(n2CCC(=O)NC2CCCCC2)CCN(C)C1` [Compound 3, N-cyclohexyl-3-(1,2,3,4-tetrahydro-2,8-dimethylpyrido[4,3-b]indol-5-yl)propanamide], in assay [1], the “Imidazoline I2 Central (1 μM), percent inhibition of specific binding” value was 27%. Moreover, the inhibition at 1 µM in assay [2] came to 63%; in assay [3], 21%; in assay [4], 35%; in assay [5] it was 36%.
